Test results reported in PubChem BioAssay (NCI).
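Tested at 5 concentrations; 48 h exposure; 96-well plates; endpoints linearly interpolated, else capped at highest concentration. TGI denotes the concentration required for complete inhibition of growth.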

Assays:
Assay in all cases: growth of human tumour cells (NCI), 48 h
[1] = test system: KM12 colon
[2] = test system: BT-549 breast
[3] = test system: OVCAR-3 ovarian
[4] = test system: HCT-116 colon
[5] = test system: MDA-MB-231 breast
[6] = test system: NCI-H522 lung
[7] = test system: SF-268 CNS
[8] = test system: HT29 colon
[9] = test system: COLO 205 colon
[10] = test system: MOLT-4 leukemia
[11] = test system: NCI-H226 lung
[12] = test system: UACC-257 melanoma
[13] = test system: LOX IMVI melanoma
[14] = test system: M14 melanoma
[15] = test system: SNB-19 CNS
[16] = test system: NCI-H460 lung
[17] = test system: 786-0 renal
[18] = test system: MCF7 breast
[19] = test system: SK-MEL-5 melanoma
[20] = test system: M19-MEL melanoma

SMILES	TGI [1] [µM]	TGI [2] [µM]	TGI [3] [µM]	TGI [4] [µM]	TGI [5] [µM]	TGI [6] [µM]	TGI [7] [µM]	TGI [8] [µM]	TGI [9] [µM]	TGI [10] [µM]	TGI [11] [µM]	TGI [12] [µM]	TGI [13] [µM]	TGI [14] [µM]	TGI [15] [µM]	TGI [16] [µM]	TGI [17] [µM]	TGI [18] [µM]	TGI [19] [µM]	TGI [20] [µM]
CC1(C)C(CBr)=[N+]([O-])C(C)(C)N1O	> 10	5.43	> 6.74	5.27	> 10	3.22	> 10	> 10	3.75	> 7.43	> 10	> 10	> 10	5.65	> 10	> 10	9.78	> 10	> 10	
COC(=O)CC(C(C(=O)OCc1ccccc1)C(C)O)N1C(=O)OCC1c1ccccc1 (centres undefined)			> 100	> 100			> 100	> 100	> 100	> 100	> 100	> 100	> 100	> 100	> 100	> 100	> 100		> 100	> 100
CCCCN(C)CC(C(C)=O)C(c1ccccc1)c1c(O)c2ccccc2oc1=O (centres undefined)	> 100		> 100	> 100		> 100	> 100	> 100	> 100	> 100	> 100	> 100	> 100	> 100	> 100	> 100	> 100		> 100	> 100
COC1CC(O[C@H]2CC[C@@]3(C)C(=CCC4(O)C3CCC35C(=O)OC6(C)O[C@@]43CCC65)C2)OC(C)C1O (some centres undefined)	> 100			> 100		> 100	> 100	> 100	> 100	> 100	> 100	> 100		> 100	> 100	> 100	> 100		> 100	> 100
CCCCC1Nc2ccccc2-c2ccnc(Cl)c21 (centres undefined)	69	42.6	25.2	32.3	43.8	29.6	89.2	47.6	36	50.9	39.9	42.3	34.7	43.1	77.7	> 100	45.2	> 100	30.3	
CC12CP(=O)(O)CC1C2(Cl)Cl (centres undefined)	> 100	> 100	> 100	> 100	> 100	> 100	> 100	> 100	> 100	> 100	> 100	> 100	> 100	> 100	> 100	> 100	> 100	> 100	> 100	
CN1/C(=C\N=O)C(C)(C)N(O)C1(C)C	> 100	> 100	> 100	> 100	> 100	> 100	> 100	> 100	> 100	> 100	> 100	> 100	> 100	> 100	> 100	> 100	> 100	> 100	> 100	
COP(=O)(/C=C/C(NC(=O)C(Cl)(Cl)Cl)c1ccccc1)OC (centres undefined)	> 100	> 100	> 100	> 100	> 100	> 100	> 100	> 100	> 100	> 100	> 100	> 100	> 100	> 100	> 100	> 100	> 100	> 100	> 100	
Cc1ccc([N+](=O)[O-])cc1NC(=O)C(=O)Cc1nc2ccc(C(=O)c3ccccc3)cc2[nH]c1=O	> 100		> 100	> 100		> 100		> 100	> 100	> 100	> 100	> 100	> 100	> 100	> 100	> 100	> 100		> 100	> 100
C1=C2C3=[N+](CCCC3)CC2Cc2sccc21 (centres undefined)	> 100	> 100	> 100	> 100	> 100	> 100	> 100	> 100	> 100	> 100	> 100	> 100	> 100	> 100	> 100	> 100	> 100	> 100	> 100	
NC1=Nc2ccccc2Sc2nccn21	69.9	> 100	66	> 100	35.9	44.3	88.4	65.1	35.4	49.4	48.1	75	32.3	32.8	> 100	> 100	57.9	> 100	33.6	
O=C1NCN(c2ccccc2)C12CCN(CCCN1CCN(CCOC(c3ccccc3)c3ccccc3)CC1)CC2	5.97	7.37	6.93	5.67	7.25	4.66	5.77	4.22	2.26	6.4	7.35	2.7	6.18	3.86	7.77	7.45	2.31	6.23	2.35	
COc1ccccc1N1C(=O)CSC1c1cccc(Oc2ccccc2)c1 (centres undefined)	75.6	31.9	45.1	31.5	32.4	34.7	36.3	46.7	34.9	64.8	36.9	33.6	32.4	33.5	56.1	33.3	32.5	37.1	29.9	
